#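 48-hour exposure; five concentrations; linearly interpolated endpoints. At the GI50, growth is halved.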 Active and inactive are the calls of the source. Cut-off read from the data, not from the text of the source: active = GI50 up to about 1.1 µM and inactive = higher.
# What was measured:
# Assay in all cases: growth of human tumour cells (NCI), 48 h
# DU-145 = system: DU-145
# EKVX = system: EKVX
# IGROV-1 = system: IGROV-1
# NCI-H23 = system: NCI-H23
# 786-0 = system: 786-0
# SN12C = system: SN12C
# MDA-MB-435 = system: MDA-MB-435
# HOP-62 = system: HOP-62
# BT-549 = system: BT-549
# CCRF-CEM = system: CCRF-CEM
# KM12 = system: KM12
# SW-620 = system: SW-620
# NCI-H460 = system: NCI-H460
# HCT-116 = system: HCT-116
# OVCAR-3 = system: OVCAR-3
# HCC 2998 = system: HCC 2998
# HT-29 = system: HT-29
# HL-60 = system: HL-60
# SF-295 = system: SF-295
# RXF 393 = system: RXF 393
# MOLT-4 = system: MOLT-4
# SK-MEL-28 = system: SK-MEL-28
# UACC-62 = system: UACC-62
# NCI/ADR-RES = system: NCI/ADR-RES
# RPMI-8226 = system: RPMI-8226
# SK-MEL-5 = system: SK-MEL-5
# SR = system: SR
# CAKI-1 = system: CAKI-1
# OVCAR-5 = system: OVCAR-5
# SNB-19 = system: SNB-19
# UACC-257 = system: UACC-257
# LOX IMVI = system: LOX IMVI
# MDA-N = system: MDA-N
# OVCAR-4 = system: OVCAR-4
# SF-268 = system: SF-268
# COLO 205 = system: COLO 205
# U-251 = system: U-251
# A498 = system: A498
# UO-31 = system: UO-31
# ACHN = system: ACHN
# K562 = system: K562
# M14 = system: M14
# HCT-15 = system: HCT-15
# MCF7 = system: MCF7
# PC-3 = system: PC-3
# Hs-578T = system: Hs-578T
# HOP-92 = system: HOP-92
# OVCAR-8 = system: OVCAR-8
# A549 = system: A549
# Malme-3M = system: Malme-3M
# SK-OV-3 = system: SK-OV-3
# SK-MEL-2 = system: SK-MEL-2
# TK-10 = system: TK-10
# SF-539 = system: SF-539
# NCI-H226 = system: NCI-H226
# MDA-MB-231 = system: MDA-MB-231
# T47D = system: T47D
smiles,measurement,setting,value
COC(=O)CSC(=S)Nc1nnc(NC(=S)SCOC(C)=O)n1C(=S)SCC(=O)OC,GI50,DU-145,> 100 µM (inactive)
same,GI50,EKVX,> 100 µM (inactive)
same,GI50,IGROV-1,> 100 µM (inactive)
same,GI50,NCI-H23,> 100 µM (inactive)
same,GI50,786-0,> 100 µM (inactive)
same,GI50,SN12C,> 100 µM (inactive)
same,GI50,MDA-MB-435,> 100 µM (inactive)
same,GI50,HOP-62,6.97 µM (inactive)
same,GI50,BT-549,> 100 µM (inactive)
same,GI50,CCRF-CEM,> 100 µM (inactive)
same,GI50,KM12,> 100 µM (inactive)
same,GI50,SW-620,> 100 µM (inactive)
same,GI50,NCI-H460,> 100 µM (inactive)
same,GI50,HCT-116,> 100 µM (inactive)
same,GI50,OVCAR-3,> 100 µM (inactive)
same,GI50,HCC 2998,> 100 µM (inactive)
same,GI50,HT-29,> 100 µM (inactive)
same,GI50,HL-60,> 100 µM (inactive)
same,GI50,SF-295,> 100 µM (inactive)
same,GI50,RXF 393,> 100 µM (inactive)
same,GI50,MOLT-4,> 100 µM (inactive)
same,GI50,SK-MEL-28,> 100 µM (inactive)
same,GI50,UACC-62,> 100 µM (inactive)
same,GI50,NCI/ADR-RES,> 100 µM (inactive)
same,GI50,RPMI-8226,> 100 µM (inactive)
same,GI50,SK-MEL-5,> 100 µM (inactive)
same,GI50,SR,> 100 µM (inactive)
same,GI50,CAKI-1,> 100 µM (inactive)
same,GI50,OVCAR-5,> 100 µM (inactive)
same,GI50,SNB-19,> 100 µM (inactive)
same,GI50,UACC-257,> 100 µM (inactive)
same,GI50,LOX IMVI,> 100 µM (inactive)
same,GI50,MDA-N,> 100 µM (inactive)
same,GI50,OVCAR-4,> 100 µM (inactive)
same,GI50,SF-268,> 100 µM (inactive)
same,GI50,COLO 205,> 100 µM (inactive)
same,GI50,U-251,> 100 µM (inactive)
same,GI50,A498,> 100 µM (inactive)
same,GI50,UO-31,> 100 µM (inactive)
same,GI50,ACHN,> 100 µM (inactive)
same,GI50,K562,> 100 µM (inactive)
same,GI50,M14,> 100 µM (inactive)
same,GI50,HCT-15,> 100 µM
same,GI50,MCF7,> 100 µM (inactive)
same,GI50,PC-3,> 100 µM (inactive)
same,GI50,Hs-578T,> 100 µM (inactive)
O=C(Cn1c2c(c3ccccc31)CCCC2)N1CCCCC1,GI50,EKVX,> 100 µM (inactive)
same,GI50,IGROV-1,> 100 µM (inactive)
same,GI50,NCI-H23,> 100 µM (inactive)
same,GI50,786-0,> 100 µM (inactive)
same,GI50,SN12C,> 100 µM (inactive)
same,GI50,HOP-92,> 100 µM (inactive)
same,GI50,MDA-MB-435,> 100 µM (inactive)
same,GI50,HOP-62,> 100 µM (inactive)
same,GI50,BT-549,> 100 µM (inactive)
same,GI50,SW-620,> 100 µM (inactive)
same,GI50,OVCAR-8,> 100 µM (inactive)
same,GI50,NCI-H460,> 100 µM (inactive)
same,GI50,HCT-116,> 100 µM (inactive)
same,GI50,OVCAR-3,> 100 µM (inactive)
same,GI50,HCC 2998,> 100 µM (inactive)
same,GI50,HT-29,> 100 µM (inactive)
same,GI50,HL-60,> 100 µM (inactive)
same,GI50,SF-295,> 100 µM (inactive)
same,GI50,MOLT-4,> 100 µM (inactive)
same,GI50,SK-MEL-28,> 100 µM (inactive)
same,GI50,UACC-62,> 100 µM (inactive)
same,GI50,NCI/ADR-RES,> 100 µM (inactive)
same,GI50,RPMI-8226,> 100 µM (inactive)
same,GI50,A549,> 100 µM (inactive)
same,GI50,SK-MEL-5,> 100 µM (inactive)
same,GI50,SR,> 100 µM (inactive)
same,GI50,CAKI-1,> 100 µM (inactive)
same,GI50,OVCAR-5,> 100 µM (inactive)
same,GI50,SNB-19,> 100 µM (inactive)
same,GI50,UACC-257,> 100 µM (inactive)
same,GI50,Malme-3M,> 100 µM (inactive)
same,GI50,LOX IMVI,> 100 µM (inactive)
same,GI50,SK-OV-3,> 100 µM (inactive)
same,GI50,SK-MEL-2,> 100 µM (inactive)
same,GI50,MDA-N,> 100 µM (inactive)
same,GI50,TK-10,> 100 µM (inactive)
same,GI50,OVCAR-4,> 100 µM (inactive)
same,GI50,SF-539,86.7 µM (inactive)
same,GI50,COLO 205,> 100 µM (inactive)
same,GI50,UO-31,> 100 µM (inactive)
same,GI50,ACHN,> 100 µM (inactive)
same,GI50,M14,> 100 µM (inactive)
same,GI50,HCT-15,> 100 µM
same,GI50,MCF7,> 100 µM (inactive)
same,GI50,PC-3,> 100 µM (inactive)
same,GI50,Hs-578T,> 100 µM (inactive)
Cc1cccc(N/C(=C(/C(Cl)=C(Cl)Cl)[N+](=O)[O-])n2nnc3ccccc32)c1,GI50,EKVX,18.6 µM (inactive)
same,GI50,NCI-H23,16.8 µM (inactive)
same,GI50,786-0,19.5 µM (inactive)
same,GI50,SN12C,15.5 µM (inactive)
same,GI50,MDA-MB-435,20.4 µM (inactive)
same,GI50,HOP-62,18 µM (inactive)
same,GI50,BT-549,18.6 µM (inactive)
same,GI50,CCRF-CEM,2.96 µM (inactive)
same,GI50,KM12,14.9 µM (inactive)
same,GI50,SW-620,15.8 µM (inactive)
same,GI50,OVCAR-8,16.5 µM (inactive)
same,GI50,NCI-H460,20.7 µM (inactive)
same,GI50,HCT-116,18.9 µM (inactive)
same,GI50,OVCAR-3,15.3 µM (inactive)
same,GI50,HCC 2998,29.2 µM (inactive)
same,GI50,NCI-H226,12.9 µM (inactive)
same,GI50,HT-29,17.3 µM (inactive)
same,GI50,SF-295,16.9 µM (inactive)
same,GI50,MOLT-4,88.3 µM (inactive)
same,GI50,SK-MEL-28,14.9 µM (inactive)
same,GI50,UACC-62,15.5 µM (inactive)
same,GI50,NCI/ADR-RES,19.7 µM (inactive)
same,GI50,RPMI-8226,13.7 µM (inactive)
same,GI50,A549,18 µM (inactive)
same,GI50,CAKI-1,17.5 µM (inactive)
same,GI50,OVCAR-5,16.6 µM (inactive)
same,GI50,SNB-19,18.2 µM (inactive)
same,GI50,UACC-257,22 µM (inactive)
same,GI50,Malme-3M,14.9 µM (inactive)
same,GI50,MDA-MB-231,13.3 µM (inactive)
same,GI50,SK-OV-3,21.3 µM (inactive)
same,GI50,SK-MEL-2,19.1 µM (inactive)
same,GI50,MDA-N,23.5 µM (inactive)
same,GI50,T47D,22.1 µM (inactive)
same,GI50,OVCAR-4,19.5 µM (inactive)
same,GI50,SF-268,15.9 µM (inactive)
same,GI50,SF-539,15.8 µM (inactive)
same,GI50,COLO 205,17.1 µM (inactive)
same,GI50,U-251,14 µM (inactive)
same,GI50,A498,12.5 µM (inactive)
same,GI50,UO-31,16.5 µM (inactive)
same,GI50,ACHN,24.3 µM (inactive)
same,GI50,K562,35 µM (inactive)
same,GI50,M14,21.9 µM (inactive)
same,GI50,HCT-15,18.4 µM
same,GI50,MCF7,21.6 µM (inactive)
same,GI50,PC-3,16.6 µM (inactive)
same,GI50,Hs-578T,4.91 µM (inactive)
